Measured values: patent publication US20130190407A1, “CALCIUM RECEPTOR-ACTIVE MOLECULES” (NPS Pharmaceuticals, Inc., priority 1991, published 2013)

Key:
Type in all cases: cell-based
[1] = target: T1, calcium receptor (Homo sapiens, UniProt P41180); assay: Cl- current in Xenopus oocytes injected with human parathyroid cell mRNA
T1 construct: poly(A)^+-enriched mRNA from human parathyroid tissue (hyperplastic glands from a case of secondary HPT); expressed in transfected cells; host or cells: Xenopus laevis oocytes injected with poly(A)+ mRNA from hyperplastic human parathyroid glands
T1 sequence (P41180 20-1078): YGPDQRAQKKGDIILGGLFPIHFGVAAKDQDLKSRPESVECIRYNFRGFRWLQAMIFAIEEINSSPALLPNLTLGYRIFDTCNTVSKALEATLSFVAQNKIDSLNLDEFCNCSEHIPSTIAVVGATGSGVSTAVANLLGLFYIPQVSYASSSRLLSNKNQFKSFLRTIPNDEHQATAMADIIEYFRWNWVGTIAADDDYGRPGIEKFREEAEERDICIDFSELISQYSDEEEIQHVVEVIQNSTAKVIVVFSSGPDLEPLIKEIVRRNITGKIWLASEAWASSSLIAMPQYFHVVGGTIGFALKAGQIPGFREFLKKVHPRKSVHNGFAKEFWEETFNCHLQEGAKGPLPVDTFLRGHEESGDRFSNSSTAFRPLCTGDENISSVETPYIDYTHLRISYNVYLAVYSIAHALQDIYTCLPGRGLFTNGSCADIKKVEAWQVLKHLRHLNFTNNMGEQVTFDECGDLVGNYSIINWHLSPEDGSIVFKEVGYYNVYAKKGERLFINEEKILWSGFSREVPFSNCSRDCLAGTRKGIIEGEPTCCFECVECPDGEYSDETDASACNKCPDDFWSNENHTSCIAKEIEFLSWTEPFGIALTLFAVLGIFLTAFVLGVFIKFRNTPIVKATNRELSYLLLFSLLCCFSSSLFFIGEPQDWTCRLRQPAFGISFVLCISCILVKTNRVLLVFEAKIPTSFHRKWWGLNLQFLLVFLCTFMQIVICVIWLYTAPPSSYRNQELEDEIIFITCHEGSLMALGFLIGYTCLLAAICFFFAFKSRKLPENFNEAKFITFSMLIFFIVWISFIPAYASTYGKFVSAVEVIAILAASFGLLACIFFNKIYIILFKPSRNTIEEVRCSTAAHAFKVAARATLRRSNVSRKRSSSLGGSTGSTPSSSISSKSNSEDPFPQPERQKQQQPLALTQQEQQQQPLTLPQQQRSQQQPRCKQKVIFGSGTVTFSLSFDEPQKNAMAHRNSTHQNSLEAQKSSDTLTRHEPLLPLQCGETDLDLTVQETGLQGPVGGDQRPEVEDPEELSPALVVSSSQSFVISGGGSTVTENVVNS
Procedure: Oocytes were injected with poly(A)^+-enriched mRNA from human parathyroid tissue (hyperplastic glands from a case of secondary HPT).
Following incubation, an oocyte was placed into a 100-μl plastic chamber and superfused with MBS at a flow rate of 0.5 ml/min using a peristaltic pump. Test molecules or inorganic polycations were added by rapidly moving the tubing into different buffers. Recording and current-passing electrodes were constructed from thin-wall capillary tubing pulled to a resistance of 1-3 Mohms and filled with 3 M KCl. […] Currents were recorded directly onto a strip chart recorder.
Using this screen allows one to test for an action directly on the calcium receptor. Oocytes expressing the calcium receptor also responded to several molecules active on intact parathyroid cells when screened as follows. […] This offers rather compelling evidence showing that these molecules act on the calcium receptor or on some other protein intimately associated with its function.

[2] = target: T2, C-cell calcium receptor (Rattus norvegicus, UniProt P48442)
T2 construct: cultured cell lines expressing the C-cell phenotype (e.g., rat medullary thyroid carcinoma cells; rMTC 6-23 cells); host or cells: rMTC 6-23 rat medullary thyroid carcinoma cells
T2 sequence (P48442 20-1079): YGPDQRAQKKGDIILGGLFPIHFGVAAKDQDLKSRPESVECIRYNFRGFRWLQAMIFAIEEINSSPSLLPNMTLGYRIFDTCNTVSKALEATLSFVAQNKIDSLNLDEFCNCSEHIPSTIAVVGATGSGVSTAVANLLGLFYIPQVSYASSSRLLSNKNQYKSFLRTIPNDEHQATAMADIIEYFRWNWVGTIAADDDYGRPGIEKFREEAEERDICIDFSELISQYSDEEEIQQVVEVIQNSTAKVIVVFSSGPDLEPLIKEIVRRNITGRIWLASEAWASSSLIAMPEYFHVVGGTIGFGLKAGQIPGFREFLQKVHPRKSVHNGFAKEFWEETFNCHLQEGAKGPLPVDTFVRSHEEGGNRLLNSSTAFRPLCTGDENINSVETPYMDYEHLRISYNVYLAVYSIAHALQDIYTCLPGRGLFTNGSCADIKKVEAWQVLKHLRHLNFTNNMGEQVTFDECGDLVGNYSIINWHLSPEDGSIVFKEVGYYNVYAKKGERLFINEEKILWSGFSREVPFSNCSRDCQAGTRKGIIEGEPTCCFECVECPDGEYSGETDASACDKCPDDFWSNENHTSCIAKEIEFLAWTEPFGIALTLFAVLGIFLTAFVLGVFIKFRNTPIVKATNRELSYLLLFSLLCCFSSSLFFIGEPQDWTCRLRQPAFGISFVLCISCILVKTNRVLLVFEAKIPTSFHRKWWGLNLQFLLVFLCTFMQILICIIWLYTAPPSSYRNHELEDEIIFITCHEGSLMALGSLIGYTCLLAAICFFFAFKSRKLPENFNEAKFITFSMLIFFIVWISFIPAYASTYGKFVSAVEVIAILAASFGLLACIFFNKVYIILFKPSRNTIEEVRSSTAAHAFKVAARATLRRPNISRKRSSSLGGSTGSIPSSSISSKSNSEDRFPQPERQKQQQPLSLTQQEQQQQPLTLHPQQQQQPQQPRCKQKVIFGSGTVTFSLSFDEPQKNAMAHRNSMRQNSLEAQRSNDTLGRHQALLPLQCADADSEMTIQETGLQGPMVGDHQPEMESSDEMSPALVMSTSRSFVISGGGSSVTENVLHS

[3] = target: T3, osteoclast calcium receptor (Rattus norvegicus, UniProt P48442); assay: [Ca2+]i (indo-1) in single rat osteoclasts
T3 sequence (P48442 20-1079): T2 sequence (P48442 20-1079)

NC[C@@H]1O[C@H](O[C@H]2[C@@H](O)[C@H](O[C@@H]3[C@@H](O)[C@H](N)C[C@H](N)[C@H]3O[C@H]3O[C@H](CN)[C@@H](O)[C@H](O)[C@H]3N)O[C@@H]2CO)[C@H](N)[C@@H](O)[C@@H]1O [Neomycin B, neomycin B]
change in current in water-injected oocytes ([1]; 10 mM, five water-injected oocytes): failed to cause any change in the current | mobilization of intracellular Ca2+ in oocytes ([1]; hexacyclen 135 μM, neomycin 100 μM, NPS 382 5 mM): effective | effect on basal [Ca2+]i [2]: without effect | EC50 C-CELL ([2]; Table 6, rMTC 6-23 cells): inactive | compounds that caused any large increase in [Ca2+]i [3]: none | effect on response to subsequent extracellular Ca2+ [3]: did not block the increase | increase in [Ca2+]i [3]: failed to evoke any increase | EC50 OSTEOCLAST ([3]; Table 6, rat osteoclasts, indo-1): inactive
